Legend:
[1] = Fluorescence excitation and emission spectra; type: physicochemical
Text: FIG. 2A is a graph of Near-Infra-Red fluorescence absorbance and emission spectra of CF750 at varying wavelengths, according to an example embodiment of the present disclosure. CF750 has a NIRF peak excitation (solid line) and a peak emission (dotted line) at 760 nm and 780 nm, respectively. Likewise, FIG. 2B is a graph of near-infra-red fluorescence absorbance and emission spectra of IRDye® CW800, according to an example embodiment of the present disclosure. IRDye® CW800 has a peak NIRF excitation and a peak NIRF emission at 774 nm and 789 nm, respectively. FIG. 2C is a graph of absorbance and emission spectra of anticancer drug doxorubicin at varying wavelengths, according to an example embodiment of the present disclosure. Doxorubicin has a peak excitation and a peak emission at 470 nm and 550 nm, respectively.
DSA (3 mg) is mixed with 800 μL of 1:1 dichloromethane and methanol in a glass vial. IRDye® 800CW NHS ester (0.5 mg) was dissolved in methanol (200 μL) then immediately combined with the lipid solution. The mixture is covered to protect it from light and left on a vortex mixer for 2.5 h. The solvent is then reduced in vacuum, dissolved in minimal amount of chloroform and applied to a silica micro-column (˜3 mL) also in chloroform. The unbound fraction is reapplied several times, before elution and washing with the same solvent. Excess DSA and unreacted dye material is retained on the column and the latter is estimated at <10% of the coloured fraction. The unbound product is dried to a film and stored as a solution in 1 mL chloroform.

[2] = reported value for the free dye; cited from earlier work

Structure (SMILES) | peak emission (Emmax) [1] | peak excitation (Exmax) [1] | Emmax, reported value [2] | Exmax, reported value [2]
CC1(C)C(/C=C/C2=C(Oc3ccc(S(=O)(=O)O)cc3)C(=C/C=C3/N(CCCCS(=O)(=O)O)c4ccc(S(=O)(=O)[O-])cc4C3(C)C)/CCC2)=[N+](CCCCCC(=O)O)c2ccc(S(=O)(=O)O)cc21 [IRDye® CW800] | 789 nm | 774 nm | 789 nm | 774 nm
COc1cccc2c1C(=O)c1c(O)c3c(c(O)c1C2=O)C[C@@](O)(C(=O)CO)C[C@@H]3O[C@H]1C[C@H](N)[C@H](O)[C@H](C)O1 [Doxorubicin, doxorubicin] | 550 nm | 470 nm |  | 
